Experiments:
[1] = system: P. aeruginosa (2943 strain); experiment: Mature biofilms, crystal violet staining; assay type: cell-based, Pseudomonas aeruginosa; parameters: key: ↓: Decrease in the parameter (optical density) compared to the negative control; −: No decrease in the parameter; ↑: Reverse effect (increase in the optical density compared to the control); settings: mature biofilm: peptide added after 24 h, further 24 h; 0.01-10 mg/mL
Experimental: (§1) After 24 h of incubation, the medium was removed. To assess the total biofilm biomass, the wells were rinsed with sterile PBS solution and stained with 0.1% crystal violet. The dye bound to the surface was then removed using 95% ethanol. To assess the presence of metabolically active cells, 0.3% MTT (PanEco Ltd., Moscow, Russia) solution was added to each well, and the plates were incubated at 37 °C for 2 h. After incubation, the MTT solution was removed, 150 µL of DMSO (Chimmed, Moscow, Russia) and 25 µL of glycine buffer were added to each well, and the plates were left at room temperature for 15 min. The resulting solutions were transferred to a flat-bottom 96-well plate, and optical density was measured at 595 nm.
(§2) A stationary-phase culture of the tested strain was diluted 100-fold in fresh medium (200 µL per well) and added to the wells of a 96-well round-bottom plate. […] After another 24 h, the medium was removed and the wells were rinsed with sterile PBS to eliminate planktonic cells. The procedures for assessing total biofilm biomass and cell metabolic activity using crystal violet and MTT assays were performed in the same manner as described above for early-stage biofilm experiments.

MRSA (SA 180-F strain) [2] = experiment: Mature biofilms, MTT assay; assay type: cell-based, methicillin-resistant Staphylococcus aureus; parameters: key: ↓: Decrease in the parameter (optical density) compared to the negative control; −: No decrease in the parameter; ↑: Reverse effect (increase in the optical density compared to the control); settings: mature biofilm: peptide added after 24 h, further 24 h; 0.01-10 mg/mL
Experimental: as §1, §2

MRSA (SA 180-F strain) [3] = experiment: Mature biofilms, MTT assay; assay type: cell-based, methicillin-resistant Staphylococcus aureus; settings: mature biofilm
Experimental: as §1, §2

MRSA (SA 180-F strain) [4] = experiment: Antibacterial activity in liquid medium (optical density); assay type: cell-based, methicillin-resistant Staphylococcus aureus; parameters: key to change of optical density vs negative control: ↓: Decrease in the parameter (optical density) compared to the negative control; −: No decrease in the parameter; ↑: Reverse effect (increase in the optical density compared to the control); settings: 24 h, 37 °C; for change of optical density vs negative control: OD 595 nm
Experimental: To evaluate the antibacterial activity of peptides in liquid culture, a stationary-phase culture of the tested bacterial strain was diluted 100-fold in fresh medium containing peptides or gentamicin (positive control) at the specified concentrations. A total volume of 200 µL was added to each well of a 96-well round-bottom microtiter plate. After 24 h of incubation at 37 °C, the samples were transferred to a flat-bottom 96-well microtiter plate, and the optical density was measured at 595 nm. Separately, the optical density of medium containing peptides but no bacteria was measured. These values were used as baseline (zero) readings for subsequent data analysis.

E. coli (MG1655 strain) [5] = experiment: Mature biofilms, MTT assay; assay type: cell-based, Escherichia coli; parameters: key: ↓: Decrease in the parameter (optical density) compared to the negative control; −: No decrease in the optical density; ↑: Reverse effect (increase in the optical density compared to the control); settings: mature biofilm: peptide added after 24 h, further 24 h; 0.01-10 mg/mL
Experimental: as §1, §2

E. coli (MG1655 strain) [6] = experiment: Early biofilm formation, crystal violet staining; assay type: cell-based, Escherichia coli; parameters: key: ↓: Decrease in the parameter (optical density) compared to the negative control; −: No decrease in the parameter; ↑: Reverse effect (increase in the optical density compared to the control); settings: peptide present from inoculation, 24 h, OD 595 nm
Experimental: as §1

MRSA (SA 180-F strain) [7] = experiment: Early biofilm formation, MTT assay; assay type: cell-based, methicillin-resistant Staphylococcus aureus; parameters: key: ↓: Decrease in the parameter (optical density) compared to the negative control; −: No decrease in the parameter; ↑: Reverse effect (increase in the optical density compared to the control); settings: 24 h, 0.3% MTT 2 h 37 °C, OD 595 nm
Experimental: as §1

E. coli (MG1655 strain) [8] = experiment: Mature biofilms, MTT assay; assay type: cell-based, Escherichia coli; settings: mature biofilm
Experimental: as §1, §2

MRSA (SA 180-F strain) [9] = experiment: Antibacterial activity on 0.7% agar (inhibition zone); assay type: cell-based, methicillin-resistant Staphylococcus aureus; parameters: key: +: The presence of a bacterial growth inhibition zone; −: The absence of a bacterial growth inhibition zone; settings: drop on 0.7% agar, 24 h
Experimental: Drops of the samples were applied to the surface of solidified 0.7% agar at the concentrations indicated in Table 2 and Supplementary S2 (Figures S1–S4). After 24 h of incubation, the results were evaluated based on the presence or absence (+/−) of inhibition zones.
Once the agar solidified, drops of peptide samples at the concentrations 1, 0.1, 0.01, and 0.001 mg/mL were applied to the agar surface.

[10] = system: P. aeruginosa (2943 strain); experiment: Early biofilm formation, MTT assay; assay type: cell-based, Pseudomonas aeruginosa; parameters: key: ↓: Decrease in the parameter (optical density) compared to the negative control; −: No decrease in the parameter; ↑: Reverse effect (increase in the optical density compared to the control); settings: 24 h, 0.3% MTT 2 h 37 °C, OD 595 nm
Experimental: as §1

MRSA (SA 180-F strain) [11] = experiment: Early biofilm formation, crystal violet staining; assay type: cell-based, methicillin-resistant Staphylococcus aureus; parameters: key: ↓: Decrease in the parameter (optical density) compared to the negative control; −: No decrease in the parameter; ↑: Reverse effect (increase in the optical density compared to the control); settings: peptide present from inoculation, 24 h, OD 595 nm
Experimental: as §1

[12] = system: P. aeruginosa (2943 strain); experiment: Mature biofilms, MTT assay; assay type: cell-based, Pseudomonas aeruginosa; settings: mature biofilm
Experimental: as §1, §2

E. coli (MG1655 strain) [13] = experiment: Mature biofilms, MTT assay; assay type: cell-based, Escherichia coli; parameters: key: ↓: Decrease in the parameter (optical density) compared to the negative control; −: No decrease in the parameter; ↑: Reverse effect (increase in the optical density compared to the control); settings: mature biofilm: peptide added after 24 h, further 24 h, 0.01-10 mg/mL
Experimental: as §1, §2

Sequence	change of optical density after crystal violet staining vs negative control [1]	change of optical density after MTT assay vs negative control (MRSA (SA 180-F strain) [2])	concentration given with ↓ (MTT) (MRSA (SA 180-F strain) [3])	concentration given with ↓ (decrease in optical density) (MRSA (SA 180-F strain) [4])	change of optical density vs negative control (MRSA (SA 180-F strain) [4])	change of optical density after MTT assay vs negative control (E. coli (MG1655 strain) [5])	change of optical density after crystal violet staining vs negative control (E. coli (MG1655 strain) [6])	change of optical density after MTT assay vs negative control (MRSA (SA 180-F strain) [7])	residual viability of cells (MTT) (E. coli (MG1655 strain) [8])	bacterial growth inhibition zone (MRSA (SA 180-F strain) [9]; 0.001 mg/mL)	bacterial growth inhibition zone (MRSA (SA 180-F strain) [9]; 0.01 mg/mL)	bacterial growth inhibition zone (MRSA (SA 180-F strain) [9]; 0.1 mg/mL)	bacterial growth inhibition zone (MRSA (SA 180-F strain) [9]; 1 mg/mL)	change of optical density after crystal violet staining vs negative control (MRSA (SA 180-F strain) [11])	residual viability of cells (MTT) [12]	change of optical density after MTT assay vs negative control (E. coli (MG1655 strain) [13])	further results
ITDFGIFIGLGGGGSRQIKIWFQNRRMKWKK [I31K^P]	↑	↓ (0.01 mg/mL)	0.01 mg/mL	1 mg/mL	↓ (1 mg/mL)	−	↑	↑									metabolic activity of cells within mature biofilms (MTT) (MRSA (SA 180-F strain) [3]; 0.01, 0.1, 1, and 10 mg/mL): decreased the metabolic activity
RKKRRQRRRGGGGITDFGIFIGL [R23L^P]	↑	↓ (0.01 mg/mL)	0.01 mg/mL	0.1 mg/mL	↓ (0.1 mg/mL)	−	↑	↑	did not inhibit	−	−	−	+	↓ (10 mg/mL)	did not inhibit		change of optical density after MTT assay vs negative control [10]: ↑
RKKRRQRRRGGGGVTDFGVFVEI [R23I^T, TAT cell-penetrating peptide linked via glycine linker to amyloidogenic fragment of S1 ribosomal protein of T. thermophilus]				1 mg/mL	↓ (1 mg/mL)		↑	↑	did not inhibit	−	−	−	+		did not inhibit	↑	
RKKRRQRRRGGGGVVVHINGGKFGGGGSRQIKIWFQNRRMKWKK [R44K^S]	↑	↓ (0.01 mg/mL)	0.01 mg/mL	0.1 mg/mL	↓ (0.1 mg/mL)		↑	↑	did not inhibit	−	−	−	+	↓ (1 mg/mL)	did not inhibit	↑	bacterial growth inhibition zone (MRSA (SA 180-F strain) [9]; 1 mg/mL, listed as R44K^P): −; change of optical density after MTT assay vs negative control ([10]; listed as R44K^P): ↓ (10 mg/mL); change of optical density after crystal violet staining vs negative control (MRSA (SA 180-F strain) [11]; listed as R44K^P): ↓ (10 mg/mL)
VTDFGVFVEIGGGGSRQIKIWFQNRRMKWKK [V31K^T, amyloidogenic fragment of S1 of T. thermophilus linked via glycine-rich linker to antennapedia peptide]	↑	↓ (0.01 mg/mL)	0.01 mg/mL	1 mg/mL	↓ (1 mg/mL)	−	↑	↑	did not inhibit	−	−	−	−	↑	did not inhibit		change of optical density after MTT assay vs negative control (E. coli (MG1655 strain) [13]; listed as V31K^S): ↑; change of optical density vs negative control (MRSA (SA 180-F strain) [4]; listed as V31K^S): ↓ (0.1 mg/mL); concentration given with ↓ (decrease in optical density) (MRSA (SA 180-F strain) [4]; listed as V31K^S): 0.1 mg/mL; change of optical density after MTT assay vs negative control ([10]; listed as V31K^S): ↓ (10 mg/mL); change of optical density after crystal violet staining vs negative control (MRSA (SA 180-F strain) [11]; listed as V31K^S): ↓ (10 mg/mL)

Reference: article PMC12470154, “In Vitro Evaluation of Antimicrobial Amyloidogenic Peptides for the Treatment of Early and Mature Bacterial Biofilms” (International Journal of Molecular Sciences, 2025)
